Where “and” joins values, the source holds several entries; their conditions need not be identical. Equal entries are not always repeated.
Columns and labels:
[1] = Photostability: NIR absorbance under ambient light; assay type: physicochemical; conditions: for decrease of absorbance after exposure to ambient light: 2 hours, absorption maximum wavelength; for NIR absorbance remaining: 31 days ambient light; for photostability compared with ICG: ambient light
Procedure: FIG. 3 is a graph showing the photostability of QR-G1-COOH, QR-G2-COOH and ICG in DMSO. Samples were exposed to the ambient light and the change of optical density at absorption maximum wavelength was monitored over time. All samples have the initial absorbance of about 1.2 at the absorption maximum wavelength. The signals were normalized against the values at 0 hour.
To evaluate the photostability of QR-G1-COOH and QR-G2-COOH, the NIR absorbance of these molecules exposed to ambient light was monitored and the results were compared with that of the FDA approved NIR dye, indocyanine green (ICG).

[2] = system: wild-type mouse malignant astrocytoma DBT (wt-DBT) cells; assay: In vitro cytotoxicity, hemocytometer-based trypan blue dye exclusion; assay type: cell-based; conditions: for cell viability: 2×10^−7 and 1×10^−5 M, 48 h
Excerpt: FIG. 4 is a graph showing the results cell viability tests of QR-G1-COOH and QR-G2-COOH on the wt-DBT cell line. Values are presented as mean±standard deviation.
The in vitro cytotoxicity of QR-G1-COOH and QR-G2-COOH against wild-type mouse malignant astrocytoma DBT (wt-DBT) cells was investigated using a hemocytometer-based trypan blue dye exclusion method.

[3] = UV-vis absorption and emission spectra (photophysical properties); assay type: physicochemical; conditions: DMSO; for Fluorescence quantum yield Φ: ICG in methanol as standard
[4] = Solubility / hydrophilicity observations; assay type: physicochemical; conditions: for hydrophilicity: as sodium salts
Excerpt: The most challenging step encountered during the synthesis of QR-G1-COOH and QR-G2-COOH was the ring cyclization of biperylene 6. Many quaterrylenes reported were synthesized through a base-assisted cyclodehydrogenation reaction using molten KOH/glucose, tert-BuOK/DBN in diglyme, or K2CO3 in ethanolamine. However, these reaction systems are not applicable for the synthesis of quaterrylene 7 because of the high reactivity of aldehyde under the harsh basic conditions. Recently, Müllen's group reported milder conditions for the preparation of uaterrylenedicarboximides and rylenediimides by the Lewis acids FeCl3/CH3NO2 and AlCl3/chlorobenzene. […] The following reduction of aldehyde groups on 7 by NaBH4 yielded benzyl alcohol 8 with a relatively low yield (32%). Coupling quaterrylene 8 with dendrons 9 and 10 provided the dendrimers QR-G1-triester and QR-G2-triester in 35% and 28% yields after purification by column chromatography.

[5] = UV-vis absorption and emission spectra (photophysical properties); assay type: physicochemical
Excerpt: FIG. […]
Similar observations have been reported on extended perylenediimides. […] This fluorescence enhancement in pluronic compared to water can be explained by the disruption of the non-fluorescent dye aggregates by pluronic, which formed micelles with dye monomers inside. The strong absorption in the NIR region and weak emission may render QR-G1-COOH to a promising photoacoustic imaging agent.

Compound	decrease of absorbance after exposure to ambient light ([1]; DMSO)	cytotoxicity to DBT cells [2]	cell viability ([2]; wt-DBT cells)	λem [3]	Fluorescence quantum yield Φ [3]	hydrophilicity [4]	ε (molar extinction coefficient) ([5]; methanol)	λem ([5]; methanol, excited at 720 nm)	ε ([5]; water)	λabs ([5]; water)	absorbance change after illumination ([1]; DMSO, 3 days ambient light)	NIR absorbance remaining ([1]; DMSO)	photostability compared with ICG [1]	other results
CC1(C)C(/C=C/C=C/C=C/C=C2\N(CCCCS(=O)(=O)O)c3ccc4ccccc4c3C2(C)C)=[N+](CCCCS(=O)(=O)[O-])c2ccc3ccccc3c21 [ICG, indocyanine green, reference compound]	48%													absorbance observed after illumination ([1]; DMSO, 3 days ambient light): no significant absorbance
C[S+](C)[O-] [DMSO, reference compound]														live cells (positive control group) ([2]; wt-DBT cells, 5% DMSO, after 48 h): 66.9%
CC(C)c1cccc(C(C)C)c1N1C(=O)c2cc(Oc3ccc(COC(=O)CCC(=O)NC(CCC(=O)NC(CCC(=O)O)(CCC(=O)O)CCC(=O)O)(CCC(=O)NC(CCC(=O)O)(CCC(=O)O)CCC(=O)O)CCC(=O)NC(CCC(=O)O)(CCC(=O)O)CCC(=O)O)cc3)c3c4ccc5c6ccc7c8c(Oc9ccc(COC(=O)CCC(=O)NC(CCC(=O)NC(CCC(=O)O)(CCC(=O)O)CCC(=O)O)(CCC(=O)NC(CCC(=O)O)(CCC(=O)O)CCC(=O)O)CCC(=O)NC(CCC(=O)O)(CCC(=O)O)CCC(=O)O)cc9)cc9c%10c(cc(Oc%11ccc(COC(=O)CCC(=O)NC(CCC(=O)NC(CCC(=O)O)(CCC(=O)O)CCC(=O)O)(CCC(=O)NC(CCC(=O)O)(CCC(=O)O)CCC(=O)O)CCC(=O)NC(CCC(=O)O)(CCC(=O)O)CCC(=O)O)cc%11)c(c%11ccc(c%12ccc(c%13c(Oc%14ccc(COC(=O)CCC(=O)NC(CCC(=O)NC(CCC(=O)O)(CCC(=O)O)CCC(=O)O)(CCC(=O)NC(CCC(=O)O)(CCC(=O)O)CCC(=O)O)CCC(=O)NC(CCC(=O)O)(CCC(=O)O)CCC(=O)O)cc%14)cc(c2c3%13)C1=O)c4c5%12)c6c7%11)c%108)C(=O)N(c1c(C(C)C)cccc1C(C)C)C9=O [QR-G2-COOH]	no significant absorbance change	low cytotoxicity	about 90%	816 nm	0.32%	high hydrophilicity	121000 M⁻¹ cm⁻¹	815 nm	0.56 10^5 M^−1 cm^−1	743 nm	3%	77%	dramatically more photostable than ICG	quantum yield relative to QR-G1-COOH ([5]; Table 1): roughly two times higher; ε ([5]; methanol, values in order of the listed absorption bands): 1.21 10^5 M^−1 cm^−1; λem ([5]; water, pluronic ~10 wt %/wt): 809 nm
CC(C)c1cccc(C(C)C)c1N1C(=O)c2cc(Oc3ccc(COC(=O)CCC(=O)NC(CCC(=O)OC(C)(C)C)(CCC(=O)OC(C)(C)C)CCC(=O)OC(C)(C)C)cc3)c3c4ccc5c6ccc7c8c(Oc9ccc(COC(=O)CCC(=O)NC(CCC(=O)OC(C)(C)C)(CCC(=O)OC(C)(C)C)CCC(=O)OC(C)(C)C)cc9)cc9c%10c(cc(Oc%11ccc(COC(=O)CCC(=O)NC(CCC(=O)OC(C)(C)C)(CCC(=O)OC(C)(C)C)CCC(=O)OC(C)(C)C)cc%11)c(c%11ccc(c%12ccc(c%13c(Oc%14ccc(COC(=O)CCC(=O)NC(CCC(=O)OC(C)(C)C)(CCC(=O)OC(C)(C)C)CCC(=O)OC(C)(C)C)cc%14)cc(c2c3%13)C1=O)c4c5%12)c6c7%11)c%108)C(=O)N(c1c(C(C)C)cccc1C(C)C)C9=O [QR-G1-triester]														solubility in organic solvents ([4]; toluene, dichloromethane, chloroform, ethyl acetate, methanol): highly soluble
CC(C)c1cccc(C(C)C)c1N1C(=O)c2cc(Oc3ccc(COC(=O)CCC(=O)NC(CCC(=O)O)(CCC(=O)O)CCC(=O)O)cc3)c3c4ccc5c6ccc7c8c(Oc9ccc(COC(=O)CCC(=O)NC(CCC(=O)O)(CCC(=O)O)CCC(=O)O)cc9)cc9c%10c(cc(Oc%11ccc(COC(=O)CCC(=O)NC(CCC(=O)O)(CCC(=O)O)CCC(=O)O)cc%11)c(c%11ccc(c%12ccc(c%13c(Oc%14ccc(COC(=O)CCC(=O)NC(CCC(=O)O)(CCC(=O)O)CCC(=O)O)cc%14)cc(c2c3%13)C1=O)c4c5%12)c6c7%11)c%108)C(=O)N(c1c(C(C)C)cccc1C(C)C)C9=O [QR-G1-COOH]	no significant absorbance change	low cytotoxicity	about 90%	816 nm	0.11%	high hydrophilicity	146000 M⁻¹ cm⁻¹ and 143000 M⁻¹ cm⁻¹	813 nm	0.74 10^5 M^−1 cm^−1	739 nm	1%	85%	dramatically more photostable than ICG	fluorescence in pluronic compared to water ([5]; 0.4% wt/wt of pluronic): large fluorescence enhancement; λabs ([5]; methanol): 771 nm and 728 nm; λem ([5]; water, pluronic ~0.4 wt %/wt): 807 nm; fluorescence in water ([5]; water, excited at 720 nm): nearly no fluorescence
